Experimental data from PMC9663854, “AadA36, a novel chromosomal aminoglycoside nucleotidyltransferase from a clinical isolate of Providencia stuartii” (Frontiers in Microbiology, 2022).

Tested on: T1, AadA36
T1 construct: N-terminal His-tag removed with thrombin
Assay: coupled NADPH assay at […] nm (UDP-glucose pyrophosphorylase, phosphoglucomutase, glucose-6-phosphate dehydrogenase), Michaelis-Menten fit
Format: biochemical, Providencia stuartii
Conditions: 50 mM HEPES pH 7.5, 10 mM MgCl2, 1 mM ATP, 0.2 mM DTT, substrate 5-150 μM

Row | SMILES | Km
1 | [H]/N=C(/N)N[C@H]1[C@H](O)[C@@H](O)[C@H](O[C@@H]2O[C@@H](C)[C@](O)(C=O)[C@H]2O[C@@H]2O[C@@H](CO)[C@H](O)[C@@H](O)[C@@H]2NC)[C@@H](N/C(N)=N\[H])[C@@H]1O [streptomycin] | 59.5 ± 14.1 µM
2 | CN[C@@H]1[C@H](O)[C@H](NC)[C@H]2O[C@@]3(O)C(=O)C[C@@H](C)O[C@H]3O[C@@H]2[C@H]1O [spectinomycin] | 49.1 ± 12.8 µM
